Experimental data taken from patent publication US5378473A, “Transdermal administration of short or intermediate half-life benzodiazepines” (Cygnus Therapeutic Systems, priority 1993, dated 1995).

Assay: Estimate of skin flux required to deliver therapeutically effective amounts of alprazolam transdermally
Conditions: practical skin area (less than about 100 cm^2); estimated from published pharmacokinetic data
Method: Based on the published pharmacokinetic data on alprazolam, applicants estimated that skin flux in the range of at least about 1 μg/cm^2 /hr would be required to deliver therapeutically effective amounts of alprazolam transdermally through a practical skin area (i.e., less than about 100 cm^2). However, when applicants measured the in vitro flux of alprazolam through skin from a propylene glycol solution, they found the flux was several-fold less than the flux required to deliver a therapeutic amount of the drug through such an area of skin. […]

Compound: Cc1nnc2n1-c1ccc(Cl)cc1C(c1ccccc1)=NC2 [Alprazolam, 8-chloro-1-methyl-6-phenyl-4H-1,2,4-triazolo(4,3-a)(1,4)benzodiazepine]
- skin flux required to deliver therapeutically effective amounts transdermally: at least 1 μg/cm^2 /hr
